Experiment [1] addresses T1, hGLP-1R (Homo sapiens, UniProt P43220). The experiment can be described thus: Nluc-mGαs recruitment to GLP-1R-GFP, BRET. It counts as cell-based, human (hGLP-1R) in HEK293T cells. (BRET reads energy transfer from a luciferase to a nearby fluorophore.)
Experiment [2] has as its target T1, hGLP-1R. The experiment can be described thus: cAMP production, CAMYEL BRET. It counts as cell-based, human (hGLP-1R) in HEK293T cells. On the technique in general: Cyclic AMP is a second messenger, typically raised through Gs and lowered through Gi signalling.
In experiment [3] the target is T1, hGLP-1R. Briefly: Nluc-mGαq recruitment to GLP-1R-GFP, BRET. Format: cell-based, human (hGLP-1R) in HEK293T cells.
In experiment [4] the target is T1, hGLP-1R. Briefly: GLP-1R-Rluc8 internalization away from GFP-CAAX, BRET. It counts as cell-based, human (hGLP-1R) in HEK293T cells.
Experiment [5] addresses T1, hGLP-1R. Briefly: β-arrestin-2-Rluc8 recruitment to GLP-1R-GFP, BRET. It counts as cell-based, human (hGLP-1R) in HEK293T cells.
For experiment [6], the target named is T1, hGLP-1R. Briefly: Nluc-mGαs recruitment to GLP-1R, BRET, MIN6. Format: cell-based, human (hGLP-1R) in mouse MIN6 cells.
Experiment [7] has as its target T1, hGLP-1R. Briefly: cAMP production, BRET, MIN6. It counts as cell-based, human (hGLP-1R) in mouse MIN6 cells.
In experiment [8] the target is T1, hGLP-1R. The experiment can be described thus: Nluc-mGαq recruitment to GLP-1R, BRET, MIN6. Format: cell-based, human (hGLP-1R) in mouse MIN6 cells.
In experiment [9] the target is T1, hGLP-1R. The experiment can be described thus: GLP-1R-Rluc8 internalization, BRET, MIN6. Format: cell-based, human (hGLP-1R) in mouse MIN6 cells.
The target of experiment [10] is T1, hGLP-1R. The experiment can be described thus: β-arrestin-2-Rluc8 recruitment, BRET, MIN6. Format: cell-based, human (hGLP-1R) in mouse MIN6 cells.
For experiment [11], the target named is T1, hGLP-1R. The experiment can be described thus: Nluc-mGαs recruitment to GLP-1R, BRET, CLU177. It counts as cell-based, human (hGLP-1R) in mouse CLU177 cells.
The target of experiment [12] is T1, hGLP-1R. Briefly: cAMP production, BRET, CLU177. It counts as cell-based, human (hGLP-1R) in mouse CLU177 cells.
The target in experiment [13] is T1, hGLP-1R. Briefly: GLP-1R-Rluc8 internalization, BRET, CLU177. Format: cell-based, human (hGLP-1R) in mouse CLU177 cells.
In experiment [14] the target is T1, hGLP-1R. Briefly: β-arrestin-2-Rluc8 recruitment, BRET, CLU177. It counts as cell-based, human (hGLP-1R) in mouse CLU177 cells.
Experiment [15] has as its system GLP-1R+ HEK293T cells. Briefly: estrone-3-sulfate ELISA in cell lysate. As to conditions: 1 μM, 2 h. Format: cell-based. A general note: ELISA stands for enzyme-linked immunosorbent assay.
In experiment [16] the target is T2, ERα (Homo sapiens, UniProt P03372).
T2 sequence (P03372 1-595): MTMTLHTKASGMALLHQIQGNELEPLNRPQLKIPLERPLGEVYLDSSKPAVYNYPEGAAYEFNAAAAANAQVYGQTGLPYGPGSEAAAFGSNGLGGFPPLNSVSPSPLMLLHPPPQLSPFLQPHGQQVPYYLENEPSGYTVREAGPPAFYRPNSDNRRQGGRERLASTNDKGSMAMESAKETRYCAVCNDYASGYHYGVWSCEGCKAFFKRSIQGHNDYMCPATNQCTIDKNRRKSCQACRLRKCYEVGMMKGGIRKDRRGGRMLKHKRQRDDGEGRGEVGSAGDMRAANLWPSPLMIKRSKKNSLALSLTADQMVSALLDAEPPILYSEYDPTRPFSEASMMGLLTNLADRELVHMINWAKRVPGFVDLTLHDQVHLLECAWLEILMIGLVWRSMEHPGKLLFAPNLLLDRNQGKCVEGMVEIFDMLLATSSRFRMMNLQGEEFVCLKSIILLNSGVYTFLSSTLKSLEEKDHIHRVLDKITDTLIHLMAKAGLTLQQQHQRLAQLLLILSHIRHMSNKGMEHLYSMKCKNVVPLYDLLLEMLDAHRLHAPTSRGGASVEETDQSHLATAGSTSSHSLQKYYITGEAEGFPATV
Briefly: Estrogen response element (ERE) luciferase reporter. Format: cell-based, human (hERα) in HEK293T cells. The settings on record: bafilomycinA1 (5 μM) or EN6 (50 μM) with E2 or E2-3-ether; 24 h.

Experiment [17] deals with GLP-1R / Rab5+ early endosomes. The experiment can be described thus: GLP-1R colocalization with Rab5+ early endosomes, BRET. The settings on record: with GLP-1 (7-36)amide (1 μM).
Experiment [18] relates to G-protein coupled estrogen receptor 1 (GPER1). The experiment can be described thus: cAMP production in GPER1+ HEK293T cells. Format: cell-based.
The test system of experiment [19] is ERα and SP-1. Briefly: Proximity ligation assay (PLA) ERα / SP-1. It counts as cell-based, human (hERα) in HEK293T cells. As to conditions: 1 μM; HEK293T overexpressing hGLP-1R and ERα.

T1 sequence (P43220 24-463): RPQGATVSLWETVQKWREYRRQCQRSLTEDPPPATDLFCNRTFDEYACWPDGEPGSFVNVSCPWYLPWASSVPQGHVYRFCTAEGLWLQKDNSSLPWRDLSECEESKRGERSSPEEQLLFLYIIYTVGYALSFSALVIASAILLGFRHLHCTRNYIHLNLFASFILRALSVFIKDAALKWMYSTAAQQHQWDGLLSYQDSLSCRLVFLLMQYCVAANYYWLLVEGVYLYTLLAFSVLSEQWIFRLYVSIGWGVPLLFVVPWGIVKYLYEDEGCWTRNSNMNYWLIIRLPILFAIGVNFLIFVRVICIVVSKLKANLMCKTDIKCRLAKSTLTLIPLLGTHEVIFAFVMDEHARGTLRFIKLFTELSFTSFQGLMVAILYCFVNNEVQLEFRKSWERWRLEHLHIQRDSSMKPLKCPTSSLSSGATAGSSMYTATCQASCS

Broadly, the EC50 is the concentration needed to bring the measured effect to its halfway point. A low value points to greater potency. As a reminder, the Emax is the size of the effect at its maximum, as opposed to the concentration needed. Regarding `CC[C@H](C)[C@H](NC(=O)[C@H](Cc1ccccc1)NC(=O)[C@H](CCC(=O)O)NC(=O)[C@H](CCCCN)NC(=O)[C@H](C)NC(=O)[C@H](C)NC(=O)[C@H](CCC(N)=O)NC(=O)[C@H](CCC(=O)O)NC(=O)[C@H](CCC(=O)O)NC(=O)[C@H](CC(C)C)NC(=O)[C@H](Cc1ccc(O)cc1)NC(=O)[C@H](CO)NC(=O)[C@H](CO)NC(=O)[C@@H](NC(=O)[C@H](CC(=O)O)NC(=O)[C@H](CO)NC(=O)[C@@H](NC(=O)[C@H](Cc1ccccc1)NC(=O)[C@@H](NC(=O)CNC(=O)[C@H](CCC(=O)O)NC(=O)C(C)(C)NC(=O)[C@@H](N)Cc1c[nH]cn1)[C@@H](C)O)[C@@H](C)O)C(C)C)C(=O)N[C@@H](C)C(=O)N[C@@H](Cc1c[nH]c2ccccc12)C(=O)N[C@@H](CC(C)C)C(=O)N[C@H](C(=O)N[C@@H](CCCCN)C(=O)NCC(=O)NCC(=O)N1CCC[C@H]1C(=O)N[C@@H](CO)C(=O)N[C@@H](CO)C(=O)NCC(=O)N[C@@H](C)C(=O)N1CCC[C@H]1C(=O)N1CCC[C@H]1C(=O)N1CCC[C@H]1C(=O)N[C@@H](CO)C(=O)N[C@@H](CCCCNC(=O)COc1ccc2c(c1)CC[C@@H]1[C@@H]2CC[C@]2(C)[C@@H](O)CC[C@@H]12)C(N)=O)C(C)C` [GLP-1-CEX/E2], the EC50 in [1] was 44.6 nM; in experiment [2], 16.8 nM; in [3] it was 47.8 nM; in [4] it was 5.01 nM; in experiment [5], 29.5 nM; in experiment [6], 143 nM. For the same molecule, the EC50 in experiment [7] was 0.963 nM; in [8] it was 245 nM; in [9] it was 158 nM; in [10], 39.2 nM; in experiment [11] it was 62.2 nM; in experiment [12], 0.0316 nM. In addition, the EC50 in experiment [13] is 142 nM; in experiment [14], 162 nM. In addition, the Emax in experiment [1] (HEK-293T) was 94.2 ± 5.2%; in experiment [2] (HEK-293T) it was 111 ± 5.3%; in [3] (HEK-293T) it was 94 ± 9%; in [4] (HEK-293T) it was 90.9 ± 1.5%; in experiment [5] (HEK-293T), 100 ± 2.6%; in experiment [6] (MIN6) it was 95.4 ± 7.7%. The maximal response (Emax) in experiment [7] (MIN6) came out at 99.1 ± 4%; in experiment [8] (MIN6), 76.7 ± 12.2%; in [9] (MIN6), 98.6 ± 9.3%; in experiment [10] (MIN6), 99 ± 4.9%; in experiment [11], 103 ± 5.7%; in experiment [12], 106 ± 6.2%. The Emax is 97.4 ± 14.8% in [13] and 95.9 ± 4.1% in experiment [14].
For `C[C@]12CC[C@@H]3c4ccc(OCC(=O)O)cc4CC[C@H]3[C@@H]1CC[C@@H]2O` [E2-3-ether, estradiol 3-carboxymethyl ether], the estrone-3-sulfate levels result in experiment [15] is on record as “significantly increased estrone-3-sulfate levels”.
As for `C=C[C@@]1(C)CC(=O)[C@]2(O)[C@@]3(C)[C@@H](O)CCC(C)(C)[C@@H]3[C@H](O)[C@H](OC(C)=O)[C@@]2(C)O1` [forskolin, reference compound], in experiment [2] (forskolin 50 μM, hGLP-1R+ HEK293T), the “saturation of the cAMP sensor” value is given as “Saturation of the cAMP sensor was not achieved”.
`CO/C1=C\C(C)=C\[C@@H](C)[C@@H](O)[C@@H](C)C/C(C)=C/C=C/[C@H](OC)[C@@H]([C@@H](C)[C@@H](O)[C@H](C)[C@@]2(O)C[C@@H](O)[C@H](C)[C@@H](C(C)C)O2)OC1=O` [bafilomycinA1]: in [4] (5 μM, with GLP-1 (7-36)amide (1 μM)), the “GLP-1R internalization on bafilomycinA1 pre/co-treatment” value is given as “without affecting receptor internalization”. In experiment [16], the “off-target effect on stimulated ERα activation” value was “did not have off-target effects on stimulated ERα activation by E2 or E2-3-ether”. In addition, the “GLP-1R retention in Rab5+ early endosomes on bafilomycinA1 pre/co-treatment” value in experiment [17] (5 μM) was “significantly increases GLP-1R retention in Rab5^+ early endosomes”.
As for `C=CC(=O)Nc1cc(NC(=O)c2cnn(-c3ccccc3F)c2)ccc1F` [EN6], in experiment [16], the “off-target effect on stimulated ERα activation” value was “did not have off-target effects on stimulated ERα activation by E2 or E2-3-ether”. For the same molecule, in experiment [17] (50 μM), the “endosomal trafficking dynamics on EN6 treatment” value was “without altering endosomal trafficking dynamics”.
For `CC(=O)c1ccc2c(c1)C1C=CCC1C(c1cc3c(cc1Br)OCO3)N2` (centres unmarked) [G1], in [18], the “cAMP production via GPER1” value is reported as “did not observe E2-or G1-driven cAMP production”.
In the case of `C[C@]12CC[C@@H]3c4ccc(O)cc4CC[C@H]3[C@@H]1CC[C@@H]2O` [E2, 17β-estradiol], the “cAMP production via GPER1” value in experiment [18] is “did not observe E2-or G1-driven cAMP production”. The “PLA: proximal localization of ERα and SP-1” value in experiment [19] was “significantly increase the proximal localization of ERα and the nucleus-localized transcription factor specificity protein-1 (SP-1) relative to GLP-1 (7-36)amide”.

The record behind these values is PMC12032945, “Estrogenic activity of E2-conjugated GLP-1 is mediated by intracellular endolysosomal acidification and estrone metabolism” (Molecular Metabolism, 2025).
